Source: US20230203043A1, “NOVEL IMIDAZOPYRAZINE DERIVATIVES” (Hoffmann-La Roche Inc., priority 2020, published 2023)
Structures can show the parent of a compound that is named as a salt.

tested on: Acinetobacter baumannii ATCC17961; experiment: Antimicrobial susceptibility testing: 90% growth inhibitory concentration (IC90) determination in Iso-Sensitest broth, OD600 growth; type: cell-based; details: Acinetobacter baumannii, ATCC17961, 16 h, read-out: A. baumannii ATCC 17961 IC90 (uM), strain ATCC 17961, OD600 growth over 16 h
Method in brief: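 Serial twofold dilution, 10 points, e.g. 50–0.097 μM final; ~5×10^(5) CFU/ml; 35±2° C, 16 h; kinetic OD600 every 20 min; IC90 from log-phase inhibition.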

Row | Compound | IC90 [µM]
1 | CCc1cc(Nc2nccn3c(-c4cn(CC#N)nc4C(F)(F)F)cnc23)ccc1C(=O)NCC(=O)N1CC2(CNC2)C1 [Example 505, 4-[[3-[1-(cyanomethyl)-3-(trifluoromethyl)pyrazol-4-yl]imidazo[1,2-a]pyrazin-8-yl]amino]-N-[2-(2,6-diazaspiro[3.3]heptan-2-yl)-2-oxo-ethyl]-2-ethyl-benzamide formate] | 0.449
2 | CCc1cc(Nc2nccn3c(-c4cn(CC#N)nc4C(F)(F)F)cnc23)ccc1C(=O)NCC(=O)N1CCCC(N)C1 (stereo not drawn) [Example 506, N-[2-(3-amino-1-piperidyl)-2-oxo-ethyl]-4-[[3-[1-(cyanomethyl)-3-(trifluoromethyl)pyrazol-4-yl]imidazo[1,2-a]pyrazin-8-yl]amino]-2-ethyl-benzamide formate] | 0.191
3 | CCc1cc(Nc2nccn3c(-c4cn(CC#N)nc4C(F)(F)F)cnc23)ccc1C(=O)NCC(=O)N1CCNC(C)C1 (stereo not drawn) [Example 507, 4-[[3-[1-(cyanomethyl)-3-(trifluoromethyl)pyrazol-4-yl]imidazo[1,2-a]pyrazin-8-yl]amino]-2-ethyl-N-[2-(3-methylpiperazin-1-yl)-2-oxo-ethyl]benzamide formate] | 0.245
4 | CCc1cc(Nc2nccn3c(-c4cn(CC#N)nc4C(F)(F)F)cnc23)ccc1C(=O)NCC(=O)N1CC2(CC(N)C2)C1 [Example 508, N-[2-(6-amino-2-azaspiro[3.3]heptan-2-yl)-2-oxo-ethyl]-4-[[3-[1-(cyanomethyl)-3-(trifluoromethyl)pyrazol-4-yl]imidazo[1,2-a]pyrazin-8-yl]amino]-2-ethyl-benzamide formate] | 0.198
5 | CCc1cc(Nc2nccn3c(-c4cn(CC#N)nc4C(F)(F)F)cnc23)ccc1C(=O)NCC(=O)N1CCC(CN)C1 (stereo not drawn) [Example 509, N-[2-[3-(aminomethyl)pyrrolidin-1-yl]-2-oxo-ethyl]-4-[[3-[1-(cyanomethyl)-3-(trifluoromethyl)pyrazol-4-yl]imidazo[1,2-a]pyrazin-8-yl]amino]-2-ethyl-benzamide formate] | 0.23
6 | CCc1cc(Nc2nccn3c(-c4cn(CC#N)nc4C(F)(F)F)cnc23)ccc1C(=O)NCC(=O)N1CCCC1CN (stereo not drawn) [Example 510, N-[2-[2-(aminomethyl)pyrrolidin-1-yl]-2-oxo-ethyl]-4-[[3-[1-(cyanomethyl)-3-(trifluoromethyl)pyrazol-4-yl]imidazo[1,2-a]pyrazin-8-yl]amino]-2-ethyl-benzamide formate] | 0.347
7 | CCc1cc(Nc2nccn3c(-c4cn(CC#N)nc4C(F)(F)F)cnc23)ccc1C(=O)NCC(=O)NC1C2CNCC21 (stereo not drawn) [Example 511, N-[2-(3-azabicyclo[3.1.0]hexan-6-ylamino)-2-oxo-ethyl]-4-[[3-[1-(cyanomethyl)-3-(trifluoromethyl)pyrazol-4-yl]imidazo[1,2-a]pyrazin-8-yl]amino]-2-ethyl-benzamide formate] | 0.295
8 | CCc1cc(Nc2nccn3c(-c4cn(CC#N)nc4C(F)(F)F)cnc23)ccc1C(=O)NCC(=O)N1CC2CC1CN2 (stereo not drawn) [Example 512, 4-[[3-[1-(cyanomethyl)-3-(trifluoromethyl)pyrazol-4-yl]imidazo[1,2-a]pyrazin-8-yl]amino]-N-[2-(2,5-diazabicyclo[2.2.1]heptan-2-yl)-2-oxo-ethyl]-2-ethyl-benzamide formate] | 0.341
9 | CCc1cc(Nc2nccn3c(-c4c[nH]nc4C(F)(F)F)cnc23)ccc1C(=O)NCC1CNC1 [Example 513, N-(azetidin-3-ylmethyl)-2-ethyl-4-((3-(3-(trifluoromethyl)-1H-pyrazol-4-yl)imidazo[1,2-a]pyrazin-8-yl)amino)benzamide formate] | 0.15
10 | CCc1cc(Nc2nccn3c(-c4c[nH]nc4C(F)(F)F)cnc23)ccc1C(=O)NC1CC2(CNC2)C1 [Example 514, 2-ethyl-N-(2-azaspiro[3.3]heptan-6-yl)-4-((3-(3-(trifluoromethyl)-1H-pyrazol-4-yl)imidazo[1,2-a]pyrazin-8-yl)amino)benzamide formate] | 0.803
11 | CCc1cc(Nc2nccn3c(-c4c[nH]nc4C(F)(F)F)cnc23)ccc1C(=O)NC1CNC1 [Example 515, N-(azetidin-3-yl)-2-ethyl-4-((3-(3-(trifluoromethyl)-1H-pyrazol-4-yl)imidazo[1,2-a]pyrazin-8-yl)amino)benzamide formate] | 0.49

same assay, conditions: Acinetobacter baumannii, ATCC17961, 16 h, strain ATCC 17961, OD600 growth over 16 h, read-out: A. baumannii ATCC 17961 IC90

Row | Compound | IC90 [µM]
12 | CCc1cc(Nc2nccn3c(-c4cn(CC#N)nc4C(F)(F)F)cnc23)ccc1C(=O)NCCNC(=O)[C@H]1CC[C@@H](N)C1 [Example 496, N-(2-((1S,3R)-3-aminocyclopentane-1-carboxamido)ethyl)-4-((3-(1-(cyanomethyl)-3-(trifluoromethyl)-1H-pyrazol-4-yl)imidazo[1,2-a]pyrazin-8-yl)amino)-2-ethylbenzamide formate] | 0.173
13 | N#CCn1cc(-c2cnc3c(Nc4ccc(C(=O)NCC(=O)N5CCC(N)CC5)c(Cl)c4)nccn23)c(C(F)(F)F)n1 [Example 502, N-[2-(4-amino-1-piperidyl)-2-oxo-ethyl]-2-chloro-4-[[3-[1-(cyanomethyl)-3-(trifluoromethyl)pyrazol-4-yl]imidazo[1,2-a]pyrazin-8-yl]amino]benzamide formate] | 0.233

Continued, values first:

Row | IC90 [µM] | Compound
14 | 0.129 | CCc1cc(Nc2nccn3c(-c4cn(CC#N)nc4C(F)(F)F)cnc23)ccc1C(=O)NCCNC(=O)[C@H](C)N [Example 493, (S)-N-(2-(2-aminopropanamido)ethyl)-4-((3-(1-(cyanomethyl)-3-(trifluoromethyl)-1H-pyrazol-4-yl)imidazo[1,2-a]pyrazin-8-yl)amino)-2-ethylbenzamide formate]
15 | 0.157 | CCc1cc(Nc2nccn3c(-c4cn(CC#N)nc4C(F)(F)F)cnc23)ccc1C(=O)NCCNC(=O)[C@@H]1CC[C@H](N)C1 [Example 494, N-(2-((1R,3S)-3-aminocyclopentane-1-carboxamido)ethyl)-4-((3-(1-(cyanomethyl)-3-(trifluoromethyl)-1H-pyrazol-4-yl)imidazo[1,2-a]pyrazin-8-yl)amino)-2-ethylbenzamide formate]
16 | 0.173 | CCc1cc(Nc2nccn3c(-c4cn(CC(F)F)nc4C(F)(F)F)cnc23)ccc1C(=O)NCCNC(=O)[C@H]1CC[C@@H](N)C1 [Example 495, N-(2-((1S,3R)-3-aminocyclopentane-1-carboxamido)ethyl)-4-((3-(1-(2,2-difluoroethyl)-3-(trifluoromethyl)-1H-pyrazol-4-yl)imidazo[1,2-a]pyrazin-8-yl)amino)-2-ethylbenzamide formate]
17 | 0.183 | CCc1cc(Nc2nccn3c(-c4cn(CC(F)F)nc4C(F)(F)F)cnc23)ccc1C(=O)NCCNC(=O)[C@@H]1CC[C@H](N)C1 [Example 497, N-(2-((1R,3S)-3-aminocyclopentane-1-carboxamido)ethyl)-4-((3-(1-(2,2-difluoroethyl)-3-(trifluoromethyl)-1H-pyrazol-4-yl)imidazo[1,2-a]pyrazin-8-yl)amino)-2-ethylbenzamide formate]
18 | 0.193 | CCc1cc(Nc2nccn3c(-c4cn(CC#N)nc4C(F)(F)F)cnc23)ccc1C(=O)NCCNC(=O)[C@H]1C[C@@H](N)C1 [Example 498, cis-N-(2-((1s,3s)-3-aminocyclobutane-1-carboxamido)ethyl)-4-((3-(1-(cyanomethyl)-3-(trifluoromethyl)-1H-pyrazol-4-yl)imidazo[1,2-a]pyrazin-8-yl)amino)-2-ethylbenzamide formate]
19 | 0.218 | CCc1cc(Nc2nccn3c(-c4cn(CC#N)nc4C(F)(F)F)cnc23)ccc1C(=O)NCC(=O)N1CCNCC1 [Example 499, 4-[[3-[1-(cyanomethyl)-3-(trifluoromethyl)pyrazol-4-yl]imidazo[1,2-a]pyrazin-8-yl]amino]-2-ethyl-N-(2-oxo-2-piperazin-1-yl-ethyl)benzamide formate]
20 | 0.222 | CCc1cc(Nc2nccn3c(-c4cn(CC#N)nc4C(F)(F)F)cnc23)ccc1C(=O)NCC(=O)N1CCC(N)CC1 [Example 500, N-[2-(4-amino-1-piperidyl)-2-oxo-ethyl]-4-[[3-[1-(cyanomethyl)-3-(trifluoromethyl)pyrazol-4-yl]imidazo[1,2-a]pyrazin-8-yl]amino]-2-ethyl-benzamide formate]
21 | 0.224 | N#CCn1cc(-c2cnc3c(Nc4ccc(C(=O)NCC(=O)N5CCNCC5)c(Cl)c4)nccn23)c(C(F)(F)F)n1 [Example 501, 2-chloro-4-[[3-[1-(cyanomethyl)-3-(trifluoromethyl)pyrazol-4-yl]imidazo[1,2-a]pyrazin-8-yl]amino]-N-(2-oxo-2-piperazin-1-yl-ethyl)benzamide formate]
22 | 0.233 | Cc1cc(Nc2nccn3c(-c4cn(CC#N)nc4C(F)(F)F)cnc23)ccc1C(=O)NCC(=O)N1CCC(N)CC1 [Example 503, N-[2-(4-amino-1-piperidyl)-2-oxo-ethyl]-4-[[3-[1-(cyanomethyl)-3-(trifluoromethyl)pyrazol-4-yl]imidazo[1,2-a]pyrazin-8-yl]amino]-2-methyl-benzamide formate]
23 | 0.238 | CCc1cc(Nc2nccn3c(-c4cn(CC#N)nc4C(F)(F)F)cnc23)ccc1C(=O)NCC(=O)N1CC[C@@H](N)C1 [Example 504, N-[2-[(3R)-3-aminopyrrolidin-1-yl]-2-oxo-ethyl]-4-[[3-[1-(cyanomethyl)-3-(trifluoromethyl)pyrazol-4-yl]imidazo[1,2-a]pyrazin-8-yl]amino]-2-ethyl-benzamide formate]
24 | 0.14 | O=C(c1ccc(Nc2nccn3c(-c4c[nH]nc4C(F)(F)F)cnc23)cc1Cl)N1CCN(C(=O)[C@H]2[C@@H]3CNC[C@@H]32)CC1 [Example 516, (4-((1R,5S,6r)-3-azabicyclo[3.1.0]hexane-6-earbonyl)piperazin-1-yl) (2-chloro-4-((3-(3-(trifluoromethyl)-1H-pyrazol-4-yl)imidazo[1,2-a]pyrazin-8-yl)amino)phenyl)methanone formate]
